What all share (assay type): physicochemical
A short description of data set [1]: Light tolerance of dye thin membrane under xenon lamp exposure. Conditions: thin membrane on glass substrate; 7.5 kw xenon lamp, two hours, 180 W/m^2; transmittance at absorption maximum wavelength (about 550 nm). On the procedure: Any one of the methine dyes represented by Chemical Formulae 1 to 3, 8 and 36, obtained by the methods in Examples 4 to 8, was weighed by 15 mg, added to three milliliters of TFP, and dissolved by energizing with ultra sound for five minutes at ambient temperature. The resulting solution was dropped to homogeneity over either side of a polished glass substrate (5 cm×5 cm) by spin coating, and the substrate was rotated at 1,000 rμm for one minute to homogeneously apply the solution over the substrate, and dried by successively blowing hot air and cool air thereunto in this order to form a thin membrane of any one of the methine dyes of the present invention over the glass substrate.
The transmittance (T0) of the methine dyes in the form of a thin layer was measured at their absorption maximum wavelengths (about 550 nm), and a 7.5 kw xenon lamp was installed apart from the glass substrate at a prescribed distance to expose the glass substrate for two hours with an irradiation energy of 180 W/m^2 when measured on the surface of the substrate while blowing cool air thereunto. Thereafter, the transmittance (T) at each of their absorption maximum wavelengths was instantly remeasured, and the residual percentage (%) of each dye was calculated by substituting the measured transmittances T and To Formula 1. In parallel, the thin membranes formed with the related compounds represented by Chemical Formulae 65 to 68 were similarly treated as in the above and respectively measured for their transmittances at their absorption maximum wavelengths.

Data set [2] in a line: DSC analysis for decomposition point (thermal property). Conditions: DSC analysis of crystal. The source says: As described above, the methine dyes of the present invention have main absorption maxima in the region at wavelengths of longer than 300 nm, usually, at wavelengths of around 350 to 850 nm, and have distinctly high molecular absorption coefficients (may be abbreviated as “ε”) of 1.0×10^5 or more, usually, 1.5×10^5 or more at their absorption maxima, and efficiently absorb the light in such wavelength region. […] As is well known, it is said that the decomposition point and the glass transition point of an organic compound are recognized as important indexes of their thermal stability, i.e., compounds with higher decomposition points and glass transition points tend to have a higher thermal stability. Accordingly, the methine dyes of the present invention can be quite advantageously used as light-absorption materials which absorb the light in the ultra violet and the infrared regions to shield it, or use the light energy of the above regions in various fields of, for example, information recordings, solar energy generations, electric equipments, electric communications apparatuses, optical equipments, clothes, building/bedding/decorating products, health goods, and agricultural materials. The decomposition points of the methine dyes can be determined by conventional […] (abbreviated as “DSC” herein after).
Conventional measurement of the dye for visible absorption spectrum in methanol solution as an absorption property gave a main absorption maximum at a wavelength of about 544 nm (E=1.94×10^5). ^1H-NMR Analysis of the methine dye in dimethyl sulfoxide-d^6 solution gave a chemical shift δ (ppm, TMS) at peaks of 0.15 to 0.32 (2H, m, —CH2—), 0.65 to 0.82 (2H, m, —CH2—), (6H, t, CH3—), 1.23 (6H, t, CH3—), 1.62 (6H, s, CH3—), 1.80 (6H, s, CH3—), 1.87 (6H, s, CH3—), 1.85 to 2.07 (2H, m, —CH2—), 2.70 to 2.90 (2H, m, —CH2—), 3.95 to 4.20 (8H, m, —CH2—), 6.39 (2H, d, —CH═), 6.48 (2H, d, —CH═), 7.51 (2H, t, ArH), 7.59 (2H, t, ArH), 7.61 (2H, d, ArH), 7.66 (2H, t, ArH), 7.75 (2H, d, ArH), 7.78 (2H, t, ArH), 8.01 (4H, t, ArH), 8.13 (4H, t, ArH), 8.16 (2H, d, ArH), 8.24 (2H, d, ArH), and 8.32 (2H, t, —CH═).
A general note: DSC measures the heat that a sample takes up or gives off during a temperature scan.

Data set [3] can be described thus: Solubility of methine dye in TFP. The note with it: for Solubility: dissolved in 100 ml of TFP at 20° C.; for solubility in TFP (in words): 1.6% by weight in TFP for forming a recording layer. The protocol:
For the methine dyes of the present invention as listed in Table 1, they were respectively dissolved in 100 ml of TFP at 20° C. and, as solubility, measured for the mass of each methine dye. In parallel, conventionally known related compounds represented by Chemical Formulae 65 to 67 were similarly measured for their solubilities.

Regarding `CCN1C(=CC=CC2=[N+](CC)c3ccc4ccccc4c3C2(C)CCCCC2(C)C(C=CC=C3N(CC)c4ccc5ccccc5c4C3(C)Cc3ccccc3)=[N+](CC)c3ccc4ccccc4c32)C(C)(Cc2ccccc2)c2c1ccc1ccccc21.F[P-](F)(F)(F)(F)F.F[P-](F)(F)(F)(F)F` (stereo not shown) [Chemical Formula 2], the “Residual percentage (%) of dye” value in data set [1] is 66%. In data set [2], the decomposition point result was “about 211 °C”. In data set [3], the Solubility is reported as 2.68 % by weight.

Take `CCN1C(=CC=CC2=[N+](CC)c3ccc4ccccc4c3C2(C)CCCCC2(C)C(C=CC=C3N(CC)c4ccc5ccccc5c4C34CCCCC4)=[N+](CC)c3ccc4ccccc4c32)C2(CCCCC2)c2c1ccc1ccccc21.F[P-](F)(F)(F)(F)F.F[P-](F)(F)(F)(F)F` (stereo not shown) [Chemical Formula 3]: the “Residual percentage (%) of dye” value in data set [1] was determined as 64%. Besides, the decomposition point result in data set [2] is “about 235 °C”. The same compound returned a Solubility in data set [3] of 2.47 % by weight.

Consider `CCN1C(=CC=CC2=[N+](CC)c3ccc4ccccc4c3C2(C)CCCCCCC2(C)C(C=CC=C3N(CC)c4ccc5ccccc5c4C3(C)C)=[N+](CC)c3ccc4ccccc4c32)C(C)(C)c2c1ccc1ccccc21.F[P-](F)(F)(F)(F)F.F[P-](F)(F)(F)(F)F` (stereo not shown) [Chemical Formula 8], for which, in data set [1], the “Residual percentage (%) of dye” value is on record as 75%. The Solubility in data set [3] came to 2.58 % by weight.

In the case of `CN1C(=CC2=[N+](C)c3ccc4ccccc4c3C2(C)CCCCC2(C)C(C=C3Oc4ccccc4N3C)=[N+](C)c3ccc4ccccc4c32)Oc2ccccc21.[O-][Cl+3]([O-])([O-])[O-].[O-][Cl+3]([O-])([O-])[O-]` (stereo not shown) [Chemical Formula 21], the decomposition point result in data set [2] was “about 285 °C”.

For the compound `C[N+]1=C(C=CNc2ccccc2)C(C)(CCCCC2(C)C(C=CNc3ccccc3)=[N+](C)c3ccc4ccccc4c32)c2c1ccc1ccccc21.[O-][Cl+3]([O-])([O-])[O-].[O-][Cl+3]([O-])([O-])[O-]` (stereo not shown) [Chemical Formula 24], the decomposition point result in data set [2] is “about 300 °C”.

Turning to `CCN1C(=CC=CC2=[N+](C)c3ccc4ccccc4c3C2(C)Cc2ccc(CC3(C)C(C=CC=C4N(CC)c5ccc6ccccc6c5C4(C)Cc4ccccc4)=[N+](C)c4ccc5ccccc5c43)cc2)C(C)(Cc2ccccc2)c2c1ccc1ccccc21.F[P-](F)(F)(F)(F)F.F[P-](F)(F)(F)(F)F` (stereo not shown) [Chemical Formula 36], the “Residual percentage (%) of dye” value in data set [1] is on record as 64%. Moreover, in data set [2], the decomposition point result was “about 220 °C”. This compound also yielded a Solubility in data set [3] of 1.66 % by weight.

On to `CCN1C(=CC=CC2=[N+](CC)c3ccc4ccccc4c3C2(C)C)C(C)(C)c2c1ccc1ccccc21` [Chemical Formula 65, reference compound], for which the “Residual percentage (%) of dye” value in data set [1] is given as 73%. In addition, in data set [3], the Solubility worked out at 1.10 % by weight.

For `CCN1C(=CC=CC2=[N+](CC)c3ccc4ccccc4c3C23CCCCC3)C(C)(C)c2c1ccc1ccccc21` [Chemical Formula 66], the “Residual percentage (%) of dye” value in data set [1] is on record as 58%. Also, in data set [3], the “solubility in TFP (in words)” value is on record as “relatively low solubility in TFP” and the Solubility is reported as 0.82 % by weight.

Regarding `CCN1C(=CC=CC2=[N+](CCCCCC[N+]3=C(C=CC=C4N(CC)c5ccc6ccccc6c5C4(C)C)C(C)(C)c4c3ccc3ccccc43)c3ccc4ccccc4c3C2(C)C)C(C)(C)c2c1ccc1ccccc21` [Chemical Formula 67], in data set [1], the “Residual percentage (%) of dye” value is given as 60%. In data set [3], the “solubility in TFP (in words)” value is recorded as “relatively low solubility in TFP” and the Solubility turned out to be 0.44 % by weight.

As to `CCN1C(=CC=CC2=[N+](CC)c3ccc4ccccc4c3C2(C)Cc2ccccc2)C(C)(Cc2ccccc2)c2c1ccc1ccccc21` (stereo not shown) [Chemical Formula 68, reference compound], the “Residual percentage (%) of dye” value in data set [1] amounted to 50%.
